Here are results for 1 compound from patent US5677297A, “Benzazepine-, benzoxazepine- and benzothiazepine-n-acetic acid derivatives, process for their preparation and pharmaceutical compositions containing them” (Solvay Pharmaceuticals GmbH, priority 1995, dated 1997).

By Ki is commonly meant a dissociation constant, usually derived from enzyme kinetics or from competition with a known ligand. A low value points to tighter binding.

For assay [1], the target named is neutral endopeptidase (NEP), purified NEP (E.C.3.4.24.11) (Homo sapiens, UniProt P08473). The assay is described as follows: In vitro investigation of the NEP-inhibitory effect (hydrolytic degradation of met-enkephalin). The format is biochemical. As to conditions: substrate met-enkephalin, 37° C., pH 7.4. On the procedure: 2. In vitro investigation of the NEP-inhibitory effect of the substances and determination of the affinity of the substance molecules for the enzyme molecule. […] The Ki (inhibitor constant) of each substance was determined as a measure of its inhibitory activity. The Ki of a test substance with enzyme-inhibiting activity is the dissociation constant for the enzyme/test substance complex or the (enzyme/substrate)--test substance complex and has units of concentration.
neutral endopeptidase (NEP), purified NEP (E.C.3.4.24.11), sequence (P08473 whole entry): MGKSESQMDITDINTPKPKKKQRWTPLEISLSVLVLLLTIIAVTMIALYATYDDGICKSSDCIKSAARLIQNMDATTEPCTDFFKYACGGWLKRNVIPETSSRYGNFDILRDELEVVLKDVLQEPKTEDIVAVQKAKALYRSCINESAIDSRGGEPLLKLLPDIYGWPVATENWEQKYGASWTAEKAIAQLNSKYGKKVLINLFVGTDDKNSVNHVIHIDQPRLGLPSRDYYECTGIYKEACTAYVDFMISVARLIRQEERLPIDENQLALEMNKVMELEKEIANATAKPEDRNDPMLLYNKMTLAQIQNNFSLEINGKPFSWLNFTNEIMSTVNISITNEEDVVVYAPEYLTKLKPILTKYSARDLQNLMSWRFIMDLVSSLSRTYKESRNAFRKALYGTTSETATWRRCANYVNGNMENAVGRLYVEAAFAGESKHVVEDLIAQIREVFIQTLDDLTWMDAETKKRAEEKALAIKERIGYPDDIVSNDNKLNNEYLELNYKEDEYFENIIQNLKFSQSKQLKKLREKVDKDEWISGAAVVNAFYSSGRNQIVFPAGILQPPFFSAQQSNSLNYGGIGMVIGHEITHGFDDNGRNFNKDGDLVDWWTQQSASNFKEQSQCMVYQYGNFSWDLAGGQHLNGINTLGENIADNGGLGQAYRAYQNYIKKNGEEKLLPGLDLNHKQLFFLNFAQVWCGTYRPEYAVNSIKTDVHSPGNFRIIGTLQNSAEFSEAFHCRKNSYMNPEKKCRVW
To carry out the test, respective 100 μl samples of various incubation solutions containing 10 ng of purified NEP (E.C.3.4.24.11) and in each case different amounts of test substance and of substrate (met-enkephalin)and 50 mM tris buffer (=tris(hydroxymethyl)aminomethane/HCl, pH 7.4) were prepared.
For each test substance, 24 different incubation solutions were prepared with 3 different test substance concentrations respectively combined with met-enkephalin contents of 2, 5, 7, 10, 12, 15, 40 and 100 μm.
In each test, two types of control incubation solutions were also processed, on the one hand enzyme controls which contain no test substance, and on the other hand substrate controls which contain neither enzyme nor test substance.
The incubation solutions were incubated in a shaking water bath at 37° C. for 45 minutes. The enzyme reaction was started after 15 minutes by adding the substrate (metenkephalin) and was stopped at the end of the incubation time by heating at 95° C. for 5 minutes. The stopped incubation solution was then centrifuged at 12,000×g for 3 minutes, and the concentrations of unreacted substrate and of hydrolysis products formed by the enzymatic reaction were determined in the supernatant. For this purpose, samples of each of the respective supernatants were fractionated by HPLC (high-pressure liquid chromatography) on hydrophobized silica gel, and the products of the enzymatic reaction and unreacted substrate were determined by photometry at a wavelength of 205 nm. The HPLC separation was carried out using a column (4.6×250 mm) which contains Encapharm™ 100 RP18 having an average particle size of 5 μm as reversed phase separation material. The solvent flow rate was 1.4 ml/min, and the column was warmed to 40° C. Mobile phase A was 5 mM H3 PO4, pH 2.5, and mobile phase B was acetonitrile +1% 5 mM H3 PO4, pH 2.5.
The Ki for each test substance was calculated in a known manner from the concentrations of hydrolysis products and unreacted substrate measured in the various samples. […] The example numbers indicated in Table B refer to the following preparation examples.

Assay [2] is described as follows: In vivo determination of the effect on diuresis/natriuresis in volume-loaded rats. Set-up: species or system rat (male Wistar). Particulars: urine collected over 60 min. As for the experimental part: 4. In vivo determination of the effect of the substances on diuresis/natriuresis in volume-loaded rats.
The in vivo activity was investigated in volume-loaded rats. In this experiment a high cardiac filling pressure was caused by infusion of isotonic sodium chloride solution, which results in ANP release and thus diuresis/natriuresis.
The tests are carried out with male Wistar rats having a body weight of 200-400 g. Under neuroleptanalgesia (fentanyl; Hypnorm™, manufactured by Janssen), a catheter was placed in the right femoral vein for the baseline infusion and the volume loading with isotonic sodium chloride solution. After the abdominal cavity had been opened, a second catheter was inserted into the bladder, and the urethra was tied off so that it was possible to measure the urine volume, natriuresis and kaliuresis.
The abdominal cavity was closed again and the animals received a continuous infusion with sodium chloride solution (0.5 ml/100 g body weight) throughout the 2 hours of the test. After an equilibration period of 30 minutes, in a preliminary phase before the test substance was given, urine samples were collected three times over a period of 10 minutes in each case. These preliminary values ("predrug" values) were determined in order to check that there was a continuous flow of urine in the test animals.
The solutions containing test substances were then administered intravenously (bolus injection into the femoral vein) or orally (by gavage) to groups of 10 rats each. With both modes of administration, in each case one control group of animals received only placebo solutions which contained no active substance. 5 Minutes after i.v. administration or 120 minutes after oral administration of the substances, the rats were loaded with an increased volume of sodium chloride solution i.v. (2 ml/100 g body weight in 2 minutes) and the urine was collected over a period of 60 min. The amounts of urine produced in this period were determined, and the sodium and potassium contents therein were measured. The increase in excretion which took place under volume loading by comparison with the preliminary values was deduced from the resulting amounts of urine.
Furthermore, the amounts of sodium and potassium excreted under volume loading after administration of test substance are also indicated as a percentage of the amounts of sodium and potassium excreted under volume loading after placebo administration.

Compound `O=C(O)CN1C(=O)[C@@H](NC(=O)C2(C[C@@H](CCc3ccccc3)C(=O)O)CCCC2)CCc2ccccc21` [Example 8, (3S,2'R)-3-[1-(2'-Carboxy-4'-phenylbutyl)cyclopentane-1-carbonylamino]-2,3,4,5-tetrahydro-2-oxo-1H-1-benzazepine-1-acetic acid] yielded a Ki in assay [1] of 400 pM. Besides, in assay [2] (0.1 mg/kg i.v.), the “Increase in the excretion of urine under volume loading after administration of test substance as % based on the increase after placebo administration” value was 123.5%; the “K excretion under volume loading, amount excreted after administration of test substance as % of the amount excreted after placebo administration” value is listed as 80.8%; the “Na excretion under volume loading, amount excreted after administration of test substance as % of the amount excreted after placebo administration” value is recorded as 160.9%. In assay [2] (1.0 mg/kg i.v.), the “Increase in the excretion of urine under volume loading after administration of test substance as % based on the increase after placebo administration” value was found to be 153.7%; the “K excretion under volume loading, amount excreted after administration of test substance as % of the amount excreted after placebo administration” value is on record as 121.8%; the “Na excretion under volume loading, amount excreted after administration of test substance as % of the amount excreted after placebo administration” value is reported as 230.4%.
